Experiments:
[1] = target: T1, AKT1 E17K (Homo sapiens, UniProt P31749, E17K); assay: AKT1 E17K kinase assay (TR-FRET, Lance); format: biochemical; settings: full-length human recombinant AKT1 E17K activated by PDPK1; Ulight-CREBtide substrate; either 50 μM ATP or 2 mM ATP
T1 construct: Purified human recombinant kinase full-length AKT1 E17K was expressed in insect cells; made in house; host or cells: insect cells
Method: AKT1 E17K kinase assay: Inhibitory effects of compounds on AKT1 E17K were undertaken in a 10-pt dose response kinase activity assay measuring phospho-peptide product formation based on TR-FRET signal as described in the following paragraph.
(§1) Purified human recombinant kinase full-length AKT1 E17K was expressed in insect cells and activated in vitro by PDPK1. Ulight™-CREBtide (PerkinElmer, catalog number TRF0107) was used as the peptide substrate. The reaction buffer consisted of 50 mM HEPES pH 7.5, 10 mM MgCl2, 0.01% Triton X-100, 0.01% BSA, 2 mM DTT, 0.6 nM AKT1 E17K, 50 nM Ulight™-CREBtide and either 50 μM ATP or 2 mM ATP. The compound solution was prepared as 10 mM DMSO stock. For the assay, a 1:3 serial dilution 10-pt dose response of test compounds, in duplicate, for each concentration were dispensed into a 384-well plate (Corning, catalog number 4513). Final DMSO concentration in the assay was 1%. The enzyme mixture (5 μL, 1.2 nM) were added and the mixture was incubated for 15 min at RT prior to the start of the kinase reaction by the addition of 5 μL substrate mixture (100 nM Ulight™-CREBtide). The reaction was stopped after 60 min of incubation at RT by the addition of 10 μL of Detection Mix (PerkinElmer, #CR97-100) consisting of Europium-anti-phospho-CREB (Ser133) (Perkin Elmer, catalog numberTRF0200). Incubation with the detection mix for a further 60 min allowed binding of antibody to the phospho-Ulight™ CREBtide. The fluorescence emissions at 620 nm and 665 nm after excitation at 350 nm was measured using Envision reader. The ratio of the emissions at 665 nm and at 620 nm provided the measure for the amount of phosphorylated CREBtide product of AKT1 E17K kinase activity. To determine the IC50 values, the data was normalized (enzyme reaction without inhibitor=0% inhibition, all other assay components but no enzyme=100% inhibition) and IC50 values were calculated by a 4-parameter fit using an in-house developed protocol.

[2] = target: T2, wildtype AKT1 (Homo sapiens, UniProt P31749); assay: AKT1 kinase assay, wildtype (TR-FRET, Lance); format: biochemical; settings: full-length human recombinant wildtype AKT1 activated by PDPK1; Ulight-CREBtide substrate; either 50 μM ATP or 2 mM ATP
T2 construct: Purified human recombinant kinase full-length wildtype AKT1 was expressed in insect cells; made in house; host or cells: insect cells
T2 sequence (P31749 whole entry): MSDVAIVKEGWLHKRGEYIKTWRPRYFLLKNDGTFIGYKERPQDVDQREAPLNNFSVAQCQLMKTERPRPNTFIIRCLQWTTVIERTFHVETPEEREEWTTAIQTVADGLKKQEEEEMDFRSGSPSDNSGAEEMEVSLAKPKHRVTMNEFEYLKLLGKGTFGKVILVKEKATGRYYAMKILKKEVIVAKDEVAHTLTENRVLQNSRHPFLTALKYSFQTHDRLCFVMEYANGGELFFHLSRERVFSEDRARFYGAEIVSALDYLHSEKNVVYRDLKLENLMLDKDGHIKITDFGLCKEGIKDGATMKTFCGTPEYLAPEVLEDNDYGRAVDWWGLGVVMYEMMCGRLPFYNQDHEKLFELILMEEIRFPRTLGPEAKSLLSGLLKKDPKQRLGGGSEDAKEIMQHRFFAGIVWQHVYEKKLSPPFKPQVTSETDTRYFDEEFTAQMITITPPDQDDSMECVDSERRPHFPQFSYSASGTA
Method: AKT1 kinase assay: Inhibitory effects of compounds on wildtype AKT1 were undertaken in a 10-pt dose response kinase activity assay measuring phospho-peptide product formation based on TR-FRET signal as described in the following paragraph.
as §1, with “full-length wildtype” for “full-length”, “AKT1” for “AKT1 E17K”, “nM AKT1,” for “nM AKT1 E17K,”, “Mix (PerkinElmer.” for “Mix (PerkinElmer,”

T1 sequence (P31749 whole entry E17K): as the sequence (P31749 whole entry) above, with E17K counted along it

Compound	IC50 [1] [nM]	IC50 [2] [nM]
Nc1ncccc1-c1nc2ccc(-c3ccccc3)nc2n1-c1ccc(CNC(=O)c2ccc(-c3nn[nH]n3)cc2)cc1 [Compound I-20, N-(4-(2-(2-aminopyridin-3-yl)-5-phenyl-3H-imidazo[4,5-b]pyridin-3-yl)benzyl)-4-(2H-tetrazol-5-yl)benzamide]	< 50	< 500
Nc1ncccc1-c1nc2ccc(-c3ccccc3)nc2n1-c1ccc(CNC(=O)c2cccc(-c3nn[nH]n3)c2)cc1 [Compound I-21, N-(4-(2-(2-aminopyridin-3-yl)-5-phenyl-3H-imidazo[4,5-b]pyridin-3-yl)benzyl)-3-(2H-tetrazol-5-yl)benzamide]	50 to 200	< 500
Cc1cc(O)n(-c2ccc(C(=O)NCc3ccc(-n4c(-c5cccnc5N)nc5ccc(-c6ccccc6)nc54)nc3)cc2)n1 [Compound I-22, N-[[6-[2-(2-amino-3-pyridyl)-5-phenyl-imidazo[4,5-b]pyridin-3-yl]-3-pyridyl]methyl]-4-(5-hydroxy-3-methyl-pyrazol-1-yl)benzamide]	≥ 500	> 500
Cc1cc(O)n(-c2ccc(C(=O)NCc3ccc(-n4c(-c5cccnc5N)nc5cc(-c6ccccc6)cnc54)cc3)cc2)n1 [Compound I-23, N-(4-(2-(2-aminopyridin-3-yl)-6-phenyl-3H-imidazo[4,5-b]pyridin-3-yl)benzyl)-4-(5-hydroxy-3-methyl-1H-pyrazol-1-yl)benzamide]	≥ 500	> 500
Cc1cc(O)n(-c2ccc(C(=O)NCc3ccc(-n4c(-c5cccnc5N)nc5cc(-c6cccnc6)cnc54)cc3)cc2)n1 [Compound I-24, N-[[4-[2-(2-amino-3-pyridyl)-6-(3-pyridyl)imidazo[4,5-b]pyridin-3-yl]phenyl]methyl]-4-(5-hydroxy-3-methyl-pyrazol-1-yl)benzamide]	≥ 500	< 500
Cc1cc(O)n(-c2ccc(C(=O)N3CC(c4ccc(-n5c(-c6cccnc6N)nc6ccc(-c7ccccc7)nc65)cc4)C3)cc2)n1 [Compound I-25, (3-(4-(2-(2-aminopyridin-3-yl)-5-phenyl-3H-imidazo[4,5-b]pyridin-3-yl)phenyl)azetidin-1-yl)(4-(5-hydroxy-3-methyl-1H-pyrazol-1-yl)phenyl) methanone]	< 50	< 500
Nc1ncccc1-c1nc2ccc(-c3ccccc3)nc2n1-c1ccc(C2CN(C(=O)c3ccc(-c4nn[nH]n4)cc3)C2)cc1 [Compound I-26, (4-(2H-tetrazol-5-yl)phenyl)(3-(4-(2-(2-aminopyridin-3-yl)-5-phenyl-3H-imidazo[4,5-b]pyridin-3-yl)phenyl)azetidin-1-yl)methanone]	< 50	< 500
Nc1ncccc1-c1nc2ccc(-c3ccccc3)nc2n1-c1ccc(C2CN(C(=O)c3cccc(-c4nn[nH]n4)c3)C2)cc1 [Compound I-27, (3-(2H-tetrazol-5-yl)phenyl)(3-(4-(2-(2-aminopyridin-3-yl)-5-phenyl-3H-imidazo[4,5-b]pyridin-3-yl)phenyl)azetidin-1-yl)methanone]	50 to 200	< 500
Cc1cc(O)n(-c2ccc(C(=O)NCc3ccc(-n4c(-c5cccnc5N)nc5ccc(-c6ccccc6)cc54)cc3)cc2)n1 [Compound I-28, N-[[4-[2-(2-amino-3-pyridyl)-6-phenyl-benzimidazol-1-yl]phenyl]methyl]-4-(5-hydroxy-3-methyl-pyrazol-1-yl)benzamide]	≥ 500	> 500

Other lines, results leading:

IC50 [1] [nM]	IC50 [2] [nM]	Compound
≥ 500	< 500	Cn1ncc(-c2ccc(C(=O)NCc3ccc(-n4c(-c5cccnc5N)nc5ccc(-c6ccccc6)nc54)cc3)cc2)c1O [Compound I-29, N-[[4-[2-(2-amino-3-pyridyl)-5-phenyl-imidazo[4,5-b]pyridin-3-yl]phenyl]methyl]-4-(5-hydroxy-1-methyl-pyrazol-4-yl)benzamide]
≥ 500	< 500	Cc1nc(NC(=O)[C@H]2CC[C@H](c3nsc(=O)[nH]3)CC2)ccc1-n1c(-c2cccnc2N)nc2ccc(-c3ccccc3)nc21 [Compound I-38, (1r,4r)-N-(5-(2-(2-aminopyridin-3-yl)-5-phenyl-3H-imidazo[4,5-b]pyridin-3-yl)-6-methylpyridin-2-yl)-4-(5-oxo-4,5-dihydro-1,2,4-thiadiazol-3-yl)cyclohexane-1-carboxamide]
200 to 500	< 500	Cc1nc(NC(=O)[C@H]2CC[C@H](c3nn[nH]n3)CC2)ccc1-n1c(-c2cccnc2N)nc2ccc(-c3ccccc3)nc21 [Compound I-39, (1r,4r)-N-(5-(2-(2-aminopyridin-3-yl)-5-phenyl-3H-imidazo[4,5-b]pyridin-3-yl)-6-methylpyridin-2-yl)-4-(2H-tetrazol-5-yl)cyclohexane-1-carboxamide]
< 50	< 500	Cc1nc(NC(=O)c2cccc(-c3nsc(=O)[nH]3)c2)ccc1-n1c(-c2cccnc2N)nc2ccc(-c3ccccc3)nc21 [Compound I-40, N-(5-(2-(2-aminopyridin-3-yl)-5-phenyl-3H-imidazo[4,5-b]pyridin-3-yl)-6-methylpyridin-2-yl)-3-(5-oxo-4,5-dihydro-1,2,4-thiadiazol-3-yl)benzamide]
50 to 200	< 500	Nc1ncccc1-c1nc2ccc(-c3ccccc3)nc2n1-c1ccc(NC(=O)c2ccc(-c3nsc(=O)[nH]3)cc2F)nc1 [Compound I-41, N-(5-(2-(2-aminopyridin-3-yl)-5-phenyl-3H-imidazo[4,5-b]pyridin-3-yl)pyridin-2-yl)-2-fluoro-4-(5-oxo-4,5-dihydro-1,2,4-thiadiazol-3-yl)benzamide]
50 to 200	< 500	Cc1nc(NC(=O)c2ccc(-c3nsc(=O)[nH]3)cc2)ccc1-n1c(-c2cccnc2N)nc2ccc(-c3ccccc3)nc21 [Compound I-42, N-(5-(2-(2-aminopyridin-3-yl)-5-phenyl-3H-imidazo[4,5-b]pyridin-3-yl)-6-methylpyridin-2-yl)-4-(5-oxo-4,5-dihydro-1,2,4-thiadiazol-3-yl)benzamide]
≥ 500	< 500	Nc1ncccc1-c1nc2ccc(-c3ccccc3)nc2n1-c1ccc(C2CN(C[C@H]3CC[C@H](c4nsc(=O)[nH]4)CC3)C2)cc1 [Compound I-43, 3-((1r,4r)-4-((3-(4-(2-(2-aminopyridin-3-yl)-5-phenyl-3H-imidazo[4,5-b]pyridin-3-yl)phenyl)azetidin-1-yl)methyl)cyclohexyl)-1,2,4-thiadiazol-5(4H)-one]
≥ 500	< 500	Nc1ncccc1-c1nc2ccc(-c3ccccc3)nc2n1-c1ccc(C2CN(C[C@H]3CC[C@@H](c4nsc(=O)[nH]4)CC3)C2)cc1 [Compound I-44, 3-((1s,4s)-4-((3-(4-(2-(2-aminopyridin-3-yl)-5-phenyl-3H-imidazo[4,5-b]pyridin-3-yl)phenyl)azetidin-1-yl)methyl)cyclohexyl)-1,2,4-thiadiazol-5(4H)-one]

From US20260200921A1, “SUBSTITUTED AMINOPYRIDINE COMPOUNDS AS AKT INHIBITORS” (Atavistik Bio, Inc., priority 2023, published 2026)
